The source of these data is patent publication US20240299360A1, “ADAMTS INHIBITORS, PREPARATION METHODS AND MEDICINAL USES THEREOF” (Jiangsu Hengrui Pharmaceuticals Co., Ltd., priority 2020, published 2024).

SMILES strings stand for the structures.

Holding throughout (format): biochemical
The target of assay [1] is ADAMTS-4 recombinant protein (Homo sapiens (Human), UniProt O75173). The assay is described as follows: In vitro fluorescence (FRET-peptide) enzymatic assay of ADAMTS-4 activity. The settings on record: FRET peptide substrate 15 μM, 10 nM enzyme, 37° C. 3 hours. As to the method: (§1) A FRET (fluorescence resonance energy transfer) peptide was cleaved by recombinant ADAMTS-4 or ADAMTS-5 proteins into two separate fragments resulting in an increase of fluorescence signal which was quantified. The peptide was 5-FAM-[…](5-TAMRA)K-NH2, customized from ANASPEC. ADAMTS-4 recombinant protein (catalog #4307-AD) and ADAMTS-5 recombinant protein (catalog #2198-AD) were purchased from R&D Systems.
(§2) An assay buffer containing 50 mM HEPES pH 7.5, 100 mM NaCl, 5 mM CaCl2, 0.1% CHAPS and 5% Glycerol was prepared. A volume of 2.5 μl of compound in the assay buffer was dispensed to a 384-well plate, and 2.5 μl of ADAMTS-4 or ADAMTS-5 protein (final concentration in the reaction was 10 nM) was added. The compounds and proteins were pre-incubated at room temperature for 15 minutes. Then, 5 μl of substrate was added to each well. The final substrate concentrations for ADAMTS-4 and ADAMTS-5 were 15 μM and 8 μM, respectively. The fluorescence signal in each well was determined, after incubation at 37° C. for 3 hours, on a TECAN plate reader (Excitation, 490 nm; Emission, 520 nm).
(§3) The data was inputted into GraphPad Prism, and the IC50 values were calculated using function “log (inhibitor) vs. response—Variable slope (four parameters)”. (See Table 1)

Assay [2] deals with T1, ADAMTS-5 recombinant protein (Homo sapiens (Human), UniProt Q9UNA0). The assay is described as follows: In vitro fluorescence (FRET-peptide) enzymatic assay of ADAMTS-5 activity. The following applies: FRET peptide substrate 8 μM, 10 nM enzyme, 37° C. 3 hours. As for the experimental part:
as §1, §2, §3

In assay [3] the target is T1, ADAMTS-5 recombinant protein. The assay is described as follows: In vitro ELISA of ADAMTS-5 activity (Aggrecan-IGD enzymatic assay). The settings on record: aggrecan-IGD substrate, ARGSVIL-peptide ELISA, 37° C. 45 minutes. As for the experimental part:
In this assay, the enzymatic activity of recombinant ADAMTS-5 protein (catalog #2198-AD, R&D Systems) was assayed with a protein substrate, the aggrecan IGD protein. The aggrecan IGD protein is a polypeptide connecting human aggrecan globular domains 1 and 2 (T331-G458) expressed in E. Coli with a C-terminal His-tag (catalog #30411000, BIOTEZ). The enzymatic product ARGSVIL-peptide was detected using an ELISA kit from BioTEZ (catalog #30510111).
An assay buffer containing 50 mM HEPES pH 7.5, 100 mM NaCl, 5 mM CaCl2), 0.1% CHAPS and 5% Glycerol was prepared. Recombinant ADAMTS-5 protein was diluted to 0.3 nM in the assay buffer. Ten μl of […] and 10 μl of compound solution was transferred to each well of a 96-well plate and incubated at room temperature for 15 minutes. Substrate aggrecan-IGD was diluted to 100 nM with the assay buffer and 20 μl was added to each well. The plate was incubated at 37° C. for 45 minutes. After incubation, the newly generated epitope ARGSVIL-peptides were measured using the Aggrecanase Activity ELISA Assay Kit following the manufacturer's instructions. Then, 100 μl of stop solution was added and the absorbance of each well was read at 450 nm, using […] as reference on a TECAN plate reader.
A standard curve of the ELISA assay was generated in GraphPad Prism using Sigmoidal 4PL function and the corresponding peptide concentrations were calculated based on the standard curve. The IC50 values were calculated using function “log (inhibitor) vs. response—Variable slope (four parameters)”. (See Table 2).
On the technique in general: In an ELISA, binding on a coated surface is turned into a signal by an enzyme label.

Sequence of ADAMTS-4 recombinant protein (O75173 213-685): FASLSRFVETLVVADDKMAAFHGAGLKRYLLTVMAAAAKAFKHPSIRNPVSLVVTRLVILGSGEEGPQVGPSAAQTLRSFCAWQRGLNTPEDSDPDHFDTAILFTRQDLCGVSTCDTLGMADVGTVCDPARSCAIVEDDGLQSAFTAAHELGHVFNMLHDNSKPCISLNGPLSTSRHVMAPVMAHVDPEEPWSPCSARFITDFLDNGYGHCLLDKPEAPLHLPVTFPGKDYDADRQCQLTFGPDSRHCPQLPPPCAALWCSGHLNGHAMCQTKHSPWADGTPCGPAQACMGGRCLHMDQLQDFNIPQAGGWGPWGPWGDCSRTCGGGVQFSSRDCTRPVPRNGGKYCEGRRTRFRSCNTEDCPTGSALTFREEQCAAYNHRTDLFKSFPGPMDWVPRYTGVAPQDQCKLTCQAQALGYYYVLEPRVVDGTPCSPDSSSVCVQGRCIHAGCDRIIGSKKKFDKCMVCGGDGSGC
T1 sequence (Q9UNA0 262-622): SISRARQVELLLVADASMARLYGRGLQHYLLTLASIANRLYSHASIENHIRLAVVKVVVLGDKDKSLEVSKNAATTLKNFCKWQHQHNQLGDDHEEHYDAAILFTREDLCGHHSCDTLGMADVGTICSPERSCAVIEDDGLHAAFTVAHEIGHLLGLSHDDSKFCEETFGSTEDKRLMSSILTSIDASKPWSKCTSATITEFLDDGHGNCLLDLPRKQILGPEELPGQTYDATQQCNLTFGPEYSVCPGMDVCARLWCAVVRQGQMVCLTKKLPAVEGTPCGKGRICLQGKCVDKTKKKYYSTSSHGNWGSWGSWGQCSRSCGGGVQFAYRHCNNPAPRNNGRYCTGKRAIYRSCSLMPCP

For `CC(C[C@@]1(C2CC2)NC(=O)NC1=O)C(=O)N1Cc2cc(Cl)c(Cl)cc2C1` (mixture of isomers) [Example 34-2, (5S)-5-cyclopropyl-5-(3-(5,6-dichloroisoindolin-2-yl)-2-methyl-3-oxopropyl)imidazolidine-2,4-dione], the results for the IC50 in assay [1], in assay [2] and in assay [3] were 7 nM, 9 nM and 17 nM, respectively.
Regarding `O=C1NC(=O)[C@](C[C@@H](CO)C(=O)N2Cc3cc(Cl)c(C(F)(F)F)cc3C2)(C2CC2)N1` (single isomer, unassigned), the IC50 was found to be 16 nM in assay [1] and 15 nM in assay [2].
On to `C[C@H]1CN(C(=O)CC[C@@]2(C3CC3)NC(=O)NC2=O)CCc2ccc(F)cc21` (single isomer, unassigned) [Example 27], for which the IC50 in assay [1] worked out at 170 nM; in assay [2], 270 nM.
Consider `C[C@@H]1CN(C(=O)CC[C@@]2(C3CC3)NC(=O)NC2=O)CCc2ccc(F)cc21` (single isomer, unassigned) [Example 28], for which the IC50 in assay [1] amounted to 47 nM; in assay [2], 48 nM.
As for `O=C1NC(=O)[C@](CCC(=O)N2Cc3ccc(Cl)cc3C2)(C2CC2)N1` [Example 2, (S)-5-(3-(5-chloroisoindolin-2-yl)-3-oxopropyl)-5-cyclopropylimidazolidine-2,4-dione], the IC50 was found to be 91 nM in assay [1], 190 nM in assay [2] and 860 nM in assay [3].
Taken in the same sequence, the figures for `O=C1NC(=O)[C@](CCC(=O)N2Cc3ccc(OC(F)(F)F)cc3C2)(C2CC2)N1` [Example 4, (S)-5-cyclopropyl-5-(3-oxo-3-(5-(trifluoromethoxy)isoindolin-2-yl)propyl)imidazolidine-2,4-dione] were 170 nM, 480 nM and 730 nM.
Turning to `O=C1NC(=O)[C@](CCC(=O)N2Cc3ccc(OC(F)F)cc3C2)(C2CC2)N1` [Example 10, (S)-5-cyclopropyl-5-(3-(5-(difluoromethoxy)isoindolin-2-yl)-3-oxopropyl)imidazolidine-2,4-dione], the IC50 in assay [1] is 41 nM; in assay [2], 260 nM.
Regarding `O=C1NC(=O)[C@](CCC(=O)N2Cc3cccnc3C2)(C2CC2)N1` [Example 12, (S)-5-cyclopropyl-5-(3-(5,7-dihydro-6H-pyrrolo[3,4-b]pyridin-6-yl)-3-oxopropyl)imidazolidine-2,4-dione], the values for the IC50 in assay [1] and in assay [2] were 2300 nM and 1500 nM, respectively.
In the case of `O=C1NC(=O)[C@](CCC(=O)N2Cc3ccncc3C2)(C2CC2)N1` [Example 13, (S)-5-cyclopropyl-5-(3-(1,3-dihydro-2H-pyrrolo[3,4-c]pyridin-2-yl)-3-oxopropyl)imidazolidine-2,4-dione], the results for the IC50 in assay [1] and in assay [2] were 1400 nM and 4000 nM, respectively.
Consider `C[C@@H]1c2ccccc2CN1C(=O)CC[C@@]1(C2CC2)NC(=O)NC1=O` [Example 14, (S)-5-cyclopropyl-5-(3-((R)-1-methylisoindolin-2-yl)-3-oxopropyl)imidazolidine-2,4-dione], for which the values for the IC50 in assay [1] and in assay [2] were 290 nM and 1000 nM, respectively.
For `O=C1NC(=O)[C@](CCC(=O)N2Cc3cccc(F)c3C2)(C2CC2)N1` [Example 16, (S)-5-cyclopropyl-5-(3-(4-fluoroisoindolin-2-yl)-3-oxopropyl)imidazolidine-2,4-dione], the IC50 in assay [1] is 1700 nM; in assay [2], 6200 nM.
In the case of `O=C1NC(=O)[C@](CCC(=O)N2Cc3ccc(F)cc3C2)(C2CC2)N1` [Example 17, (S)-5-cyclopropyl-5-(3-(5-fluoroisoindolin-2-yl)-3-oxopropyl)imidazolidine-2,4-dione], the IC50 in assay [1] amounted to 310 nM; in assay [2], 370 nM.
On to `O=C1NC(=O)[C@](CCC(=O)N2Cc3cc(F)c(F)cc3C2)(C2CC2)N1` [Example 19, (S)-5-cyclopropyl-5-(3-(5,6-difluoroisoindolin-2-yl)-3-oxopropyl)imidazolidine-2,4-dione], for which the IC50 came out at 260 nM in assay [1] and 330 nM in assay [2].
Take `COc1cccc2c1CCN(C(=O)CC[C@@]1(C3CC3)NC(=O)NC1=O)CC2` [Example 25, (S)-5-cyclopropyl-5-(3-(6-methoxy-1,2,4,5-tetrahydro-3H-benzo[d]azepin-3-yl)-3-oxopropyl)imidazolidine-2,4-dione]: the values for the IC50 in assay [1] and in assay [2] were 5800 nM and 3600 nM, respectively.
`CC1(C)CN(C(=O)CC[C@@]2(C3CC3)NC(=O)NC2=O)CCc2ccccc21` [Example 26, (S)-5-cyclopropyl-5-(3-(1,1-dimethyl-1,2,4,5-tetrahydro-3H-benzo[d]azepin-3-yl)-3-oxopropyl)imidazolidine-2,4-dione]: the IC50 in assay [1] was determined as 3800 nM; in assay [2], 5400 nM.
With `CCC(C[C@@]1(C2CC2)NC(=O)NC1=O)C(=O)N1Cc2ccc(C(F)(F)F)cc2C1` (stereo partly drawn) [Example 31-2, (5S)-5-cyclopropyl-5-(2-(5-(trifluoromethyl)isoindoline-2-carbonyl)butyl)imidazolidine-2,4-dione], in assay [3], the IC50 came out at 33 nM.
With `O=C1NC(=O)C(CCC(=O)N2Cc3ccc(C(F)(F)F)cc3C2)(c2nccs2)N1` (centres unmarked) [Example 43, 5-(3-oxo-3-(5-(trifluoromethyl)isoindolin-2-yl)propyl)-5-(thiazol-2-yl)imidazolidine-2,4-dione], the IC50 in assay [1] was determined as 150 nM; in assay [2], 250 nM.
Taken in the same sequence, the figures for `O=C1NC(=O)[C@](CCC(=O)N2Cc3cc(Cl)c([N+](=O)[O-])cc3C2)(C2CC2)N1` [Example 50, (S)-5-(3-(5-chloro-6-nitroisoindolin-2-yl)-3-oxopropyl)-5-cyclopropylimidazolidine-2,4-dione] were 120 nM and 220 nM.
Consider `O=C1NC(=O)[C@](CCC(=O)N2Cc3cc(Cl)c(I)cc3C2)(C2CC2)N1` [Example 53, (S)-5-(3-(5-chloro-6-iodoisoindolin-2-yl)-3-oxopropyl)-5-cyclopropylimidazolidine-2,4-dione], for which the IC50 came out at 240 nM in assay [1] and 170 nM in assay [2].
For `O=C1NC(=O)C(CCC(=O)N2Cc3ccc(C(F)(F)F)cc3C2)(c2ccccn2)N1` (centres unmarked) [Example 60, 5-(3-oxo-3-(5-(trifluoromethyl)isoindolin-2-yl)propyl)-5-(pyridin-2-yl)imidazolidine-2,4-dione], the values for the IC50 in assay [1] and in assay [2] were 170 nM and 220 nM, respectively.
Consider `O=C1NC(=O)[C@](CCC(=O)N2Cc3ccc(CC(F)(F)F)cc3C2)(C2CC2)N1` [Example 72, (S)-5-cyclopropyl-5-(3-oxo-3-(5-(2,2,2-trifluoroethyl)isoindolin-2-yl)propyl)imidazolidine-2,4-dione], for which the IC50 in assay [1] was determined as 43 nM; in assay [2], 130 nM.
Turning to `O=C1NC(=O)[C@](CCC(=O)N2Cc3cc(F)c(C(F)F)cc3C2)(C2CC2)N1` [Example 74, (S)-5-cyclopropyl-5-(3-(5-(difluoromethyl)-6-fluoroisoindolin-2-yl)-3-oxopropyl)imidazolidine-2,4-dione], the IC50 in assay [1] amounted to 56 nM; in assay [2], 100 nM.
Taken in the same sequence, the figures for `Cn1ccc(C2(CCC(=O)N3Cc4cc(Cl)c(C(F)(F)F)cc4C3)NC(=O)NC2=O)n1` (centres unmarked) [Example 77, 5-(3-(5-chloro-6-(trifluoromethyl)isoindolin-2-yl)-3-oxopropyl)-5-(1-methyl-1H-pyrazol-3-yl)imidazolidine-2,4-dione] were 400 nM and 160 nM.
Regarding `CCn1ccnc1C1(CCC(=O)N2Cc3cc(Cl)c(C(F)(F)F)cc3C2)NC(=O)NC1=O` (centres unmarked) [Example 82, 5-(3-(5-chloro-6-(trifluoromethyl)isoindolin-2-yl)-3-oxopropyl)-5-(1-ethyl-1H-imidazol-2-yl)imidazolidine-2,4-dione], the values for the IC50 in assay [1] and in assay [2] were 80 nM and 25 nM, respectively.

One may read the IC50 as the concentration that inhibits the measured activity by half.
